Literature values as cited in US7390503B1, “Ondansetron orally disintegrating tablets” (Barr Laboratories, Inc., priority 2003, dated 2008).
Structures can show the parent of a compound that is named as a salt. Where two headings read alike, the source gives them in different places.

Conditions: general statement, no test described

Question: With Cc1nccn1CC1CCc2c(c3ccccc3n2C)C1=O (centres unmarked) [Ondansetron hydrochloride dihydrate] as the compound, how does the solubility in water (hydrochloride dihydrate) read?
Answer: freely soluble in water

Question: Which solubility in water does the source give for Cc1nccn1CC1CCc2c(c3ccccc3n2C)C1=O (centres unmarked) [ondansetron in free base form, 1,2,3,9-tetrahydro-9-methyl-3-[(2-methyl-1H-imidazol-1-yl)methyl]-4H-carbazol-4-one] here?
Answer: soluble in water
